Data reported in US6762164B2, “Use of 3-position cyclosporin derivatives for hair growth” (LG Household & Health Care Ltd., priority 2001, dated 2004).

Test system: Female C57BL/6 mice
Experiment: Test for hair growth promoting effect: hair regrowth on shaved backs of mice
Format: in vivo
Settings: shaved back, 100 μl (conc. 0.1% w/v) applied once a day for 30 days, visual approach
Protocol: Female C57BL/6 mice of ages 6 to 7 weeks were utilized. After removing hairs on the middle of the back with an electric shaver, the mice were weighed and randomly assigned to the test groups with an even distribution of weights. The mice were given one day for adaptation. From the next day, mice were applied once a day on their backs with cyclosporin A and the cyclosporin A derivatives (Compounds 1 to 7) prepared by HPLC in Example 1 in amounts of 100 μl (conc. 0.1% w/v) for 30 days. The results were determined by visual approach, in terms of degrees of hair regrowth. With respect to respective hair-removed areas, rates of new hair growth were examined and compared.

[N-methyl-D-Nva^3] cyclosporin A [Compound 2]
Area rate of hair regrowth (%): 91%

[N-methyl-D-Abu3] cyclosporin A [Compound 1]
Area rate of hair regrowth (%): 95%

[D-2-(methylthio)-Sar^3] cyclosporin A [Compound 5]
Area rate of hair regrowth (%): 93%

cyclosporin A [reference compound]
Area rate of hair regrowth (%): 91%

[N-methyl-D-Ser^3] cyclosporin A [Compound 7]
Area rate of hair regrowth (%): 90%

[N-methyl-O-propenyl-D-Ser^3] cyclosporin A [Compound 6]
Area rate of hair regrowth (%): 94%

[D-2-(methylamino)hexa-4-ynoyl^3] cyclosporin A [Compound 3]
Area rate of hair regrowth (%): 95%

[D-2-(methylamino)pent-4-ynoyl^3] cyclosporin A [Compound 4]
Area rate of hair regrowth (%): 96%
